Source: US20160361391A1, “REDUCTION OF TRAF1 LEVELS COMBINED WITH NUTRIENT STRESS FOR TREATING LYMPHOCYTE-RELATED CANCERS” (THE GOVERNING COUNCIL OF THE UNIVERSITY OF TORONTO, priority 2014, published 2016)

Columns and labels:
Format in all cases: cell-based, human
[1] = system: TRAF1; assay: TRAF1 levels by flow cytometry in knockdown RAJI; details: RAJI knockdown cells versus control sample
Text: (§1) (A) Whole cell extracts from RAJI cells treated with control shRNA (shCTRL) or TRAF2 shRNA (shTRAF2) were immunoblotted for TRAF2 or as a loading control, GAPDH. (B) Annexin V staining of RAJI after Erwinase treatment (1 IU/ml; 24 hrs) in shCTRL, shTRAF1 or shTRAF2 cells.
(§2) TRAF2 knockdown also decreases RAJI survival in the presence of Erwinase (FIG. 14). […] On the Y axis, is indicated knockdown of TRAF2, PKN1, TRAF1 or control sample. The vertical dashed line indicates the peak level of expression in the control sample for comparison with the knockdown cells.

[2] = system: RAJI cells; assay: Annexin V / propidium iodide cell death by flow cytometry, RAJI; details: 1 IU/ml Erwinase
Protocol: RAJI cells stably expressing control shRNA (shCtrl), TRAF1 shRNA (shTRAF1) or PKN1 shRNA (shPKN1) were left untreated or treated with 1 IU/ml Erwinase for the indicated time points. For cells treated with Erwinase for longer than 24 hrs, cell culture media was replaced every 24 hrs and 1 IU/ml Erwinase was added to ensure the continued absence of glutamine. Cells were then stained with Annexin V-FITC (ebioscience) and Propidium Iodide (PI) and then analyzed by flow cytometry (BD LSR Fortessa). The upper right quadrant (Q2) indicates the fraction dead cells.
as §1
(§3) It was next asked what the effect of reducing TRAF1 and its signalling partner TRAF2 in lymphoma had on cell proliferation and survival. […] To determine whether this effect was due to death of the lymphoma cells, Annexin V and propidium iodide (PI) staining of the lymphomas were analyzed at different times after transfer to Erwinase containing medium. Annexin V binds to phosphatidyl serine, which becomes exposed on the surface of cells as they undergo apoptosis. Then, cells become permeable to propidium iodide upon death. […] The slightly greater effect on cell death of direct TRAF1 knockdown compared to PKN1 knockdown is consistent with the smaller effect of PKN1 knockdown on TRAF1 levels compared to direct TRAF1 knockdown with shTRAF1.

[3] = system: Erk and NF-κB activation; assay: Flow cytometry for pERK and phospho P65 subunit of NFkB; details: RAJI knockdown cells versus control sample
Text: as §1, §2

[4] = system: Chronic lymphocytic leukemia cell line MEC2; assay: Annexin V / propidium iodide cell death by flow cytometry, MEC2; details: MEC2, 1 IU/ml Erwinase, 0, 18, 24 or 42 hrs
Protocol: MEC2 cells were transfected with control shRNA (shCTRL), shTRAF1 or shPKN1 and then were left untreated or treated with 1 IU/ml Erwinase for 0, 18, 24 or 42 hrs. Cell death was measured by flow cytometry for Annexin V and propidium iodide (PI), where double staining for Annexin V and Propidium iodide (PI) is used to indicate cell death.

[5] = system: TRAF1; assay: TRAF1 levels by Western blot after shRNA knockdown
Protocol: Left: RAJI cells were stably transfected with control small hairpin (sh) RNA or with shRNA designed to knockdown expression of TRAF1 (shRNAs obtained from Open Biosystems (TRC library number: TRCN0000056885 sequence: […]) (SEQ ID NO:1)). TRAF1 levels in RAJI expressing shCtrl or with shTRAF1 were analyzed by Western blot. Protein loading was analyzed based on GAPDH levels. Right: TRAF1 levels in B-chronic lymphocytic leukemia (CLL) lines and Daudi CD5+ (a Burkitt's lymphoma with CLL like properties) were determined by Western blot.
Left: Schematic diagram of TRAF1 indicating site of phosphorylation by PKN1 as identified by Kato et al.^29 Middle: RAJI cells were stably transfected with control shRNA (shCtrl), TRAF1 shRNA (shTRAF1) or PKN1 shRNA (shPKN1) (obtained from Open Biosystems (TRC library number: TRCN0000001484 sequence: […] (SEQ ID NO:2)). Right: Daudi cells were transduced with control shRNA (shCTRL), shRNA targeting TRAF1 (shTRAF1) or shRNA targeting PKN1 (shPKN1). Cells were analyzed for levels of TRAF1, tubulin or GAPDH by western blot. “Pool” refers to bulk transfected cell lines without subcloning.
Based on the finding that primary T cells lacking TRAF1 are sensitive to loss of TRAF2 when 4-1 BB signalling is induced during nutrient stress, the role of the reduction of TRAF1 levels combined with nutrient stress on B lymphomas was tested. […]

[6] = system: RAJI cells; assay: MTT cell viability / growth assay; details: for cell growth / proliferation with Erwinase (MTT) / tumour growth rate (MTT): RAJI; for cell growth / proliferation with Erwinase (MTT): 1 IU/ml Erwinase; for tumour growth rate (MTT): complete culture medium, no Erwinase
Protocol: MTT reagent was then solubilized with DMSO and absorbance was measured by ELISA plate reader at 560 nm and referenced to absorbance at 620 nm. Data are plotted as fold change relative to untreated shCtrl RAJI cells.
as §3
FIG. 7 provides a rationale for a screen for a PKN1 inhibitor that synergizes with Erwinase: In particular, the assay is used to look for inhibitors that act at nanomolar concentration to reduce cell survival. […] Inhibitors that reduce the signal in the MTT assay by at least 3 fold relative to Erwinase alone will be identified as potential PKN1 inhibitors. This initial screen is amenable to a 96 well plate assay in which each drug candidate is tested on control RAJI cells with and without Erwinase as well as shPKN1 RAJI cells with Erwinase. Candidate drugs that lower the signal on control RAJI cells only in the presence but not in the absence of Erwinase, and have no effect on PKN1 knockdown cells treated with Erwinase, represent candidates for kinase inhibitors that act through PKN1 inhibition to reduce TRAF1 levels. The candidates can then be verified by determining the inhibitory effects on TRAF1 levels.

[7] = system: TRAF2; assay: TRAF2 levels by immunoblot during nutrient stress; details: RAJI cells; for TRAF2 levels during Erwinase treatment: 1 IU/ml Erwinase, up to 6 hrs
Protocol: (B) Wild type (WT), shCtrl or shTRAF1 RAJI cells were treated with 1 IU/ml Erwinase for 1, 3 or 6 hrs and immunoblotted for TRAF2 and TRAF1.
Right: RAJI cells stably expressing shCtrl or shPKN1 were treated with 1 IU/ml Erwinase for 0, 3 or 6 hrs and lysates were immunoblotted for TRAF2, or as a loading control, GAPDH.
To test the effect of lower levels of TRAF1 on the level of TRAF2 in lymphoma, WT and shTRAF1 RAJI cells were incubated under conditions of nutrient stress (low glutamine). […] In order to mimic conditions of nutrient stress in a manner that can be useful therapeutically, the licensed drug Erwinase (described above) was utilized. […] Of note, in contrast to the work with primary cells, the loss of TRAF2 when TRAF1 is limiting occurred without a need to add reagents to specifically engage a TNFR family member, but rather occurs spontaneously upon nutrient stress.

[8] = system: mTORC1; assay: pS6K / pS6 level as marker of mTORC1 activation; details: RAJI lymphoma cells
Text: Left: Levels of pS6K in RAJI control cells. Right: Levels of pS6K in RAJI shTRAF1. Upper panels show pS6K, lower panels show GAPDH to control for equal loading. B. Schematic showing link between nutrient stress, mTORC1 and pS6. C. Left: Representative flow cytometry analysis of TRAF1 and phospho-S6 expression in Raji shCTRL and Raji shTraf1 cells. […] FMO is fluorescence minus one control stain. Right: Correlation plot of TRAF1 versus phospho-S6 expression in lymphoma and CLL cell lines (gated on live cells). All flow cytometry is based on gating on live cells (using live/dead staining marker).
In an effort to understand the mechanism of synergy between lowering TRAF1 levels and increased sensitivity to Erwinase, the activity of mTORC1, a key sensor of the nutrient state of the cells, was examined. Nutrient stress inhibits the activation of mTORC1, a key regulator of proliferation, metabolism and cell survival.^35 PhosphoS6K (pS6K), a downstream target of mTORC1, can be used as a marker of mTORC1 activation. […] However, unexpectedly, TRAF1 knockdown cells had lower basal level of pS6K prior to treatment, perhaps explaining the synergistic effect of TRAF1 knockdown with Erwinase treatment (FIG. 11A—compare right to left western blots). […] Further, a correlation between the level of TRAF1 in the cell and the activity of mTORC1 as measured by pS6 levels was shown (FIG. 11C).

[9] = system: panel of lymphoma and the CLL line MEC2; assay: Erwinase sensitivity versus TRAF1 expression in cell line panel; details: 1 IU/ml Erwinase, 24 hours; lines with medium/hi TRAF1 expression
Protocol: Correlation plot of TRAF1 expression versus Erwinase sensitivity. Cell lines were treated with 1 IU/ml Erwinase for 24 hours and cell death was measured by AnnexinV/PI staining. Erwinase sensitivity is measured as % of cells AnnexinV^+, PI^+ and/or AnnexinV^+/PI^+ cells. Left: Erwinase sensitivity versus TRAF1 expression (measured by flow cytometry, gated on live cells) for a panel of lymphoma and the CLL line MEC2.
PKN1 stabilizes TRAF1 and TRAF1 serine 146, a target of PKN1 is required for TRAF1 stability (see above). As lowering TRAF1 by PKN1 knockdown increases sensitivity to nutrient stress, knockdown of PKN1 with RNA interference or anti-sense approaches, or inhibition of PKN1 using chemical inhibitors could be used to increase sensitivity to nutrient stress. In order to develop this strategy, biomarker needs to be developed to predict which cancers would be susceptible. To this end, TRAF1 protein expression was measured in a panel of human lymphomas and the CLL cell line MEC2 by flow cytometry and these levels were correlated with sensitivity to the nutrient stress-inducing drug Erwinase. […] However, in cells that express TRAF1 above an MFI of 1500, there was a strong correlation between TRAF1 levels and resistance to cell death induced by nutrient stress (FIG. 13). Cancers with these properties are candidates for therapy with PKN1 in combination with nutrient stress.

Molecule: shTRAF2: shRNA to TRAF2, mature antisense ATGGCGTGGAATCTGCAAGGG
- TRAF1 levels (flow cytometry) [1]: lowers TRAF1 levels
- sensitivity to Erwinase induced death (Annexin V/PI) [2]: increased susceptibility to Erwinase-mediated nutrient stress
- constitutive Erk and NF-κB activation [3]: reduces constitutive Erk and NF-κB activation

Molecule: shPKN1: shRNA targeting PKN1, sequence CTGATGTGTGAGAAGCGGA (Open Biosystems TRC library)
- sensitivity to Erwinase induced death (Annexin V/PI) [4]: increases the sensitivity of the Chronic lymphocytic leukemia cell line MEC2 to Erwinase induced death
- TRAF1 levels ([5]; RAJI and Daudi cells with shRNA to PKN1, versus shCtrl): decreases TRAF1 levels
- sensitivity to Erwinase induced death (Annexin V/PI) [2]: Increases the Sensitivity of RAJI to Erwinase Induced Death
- cell growth / proliferation with Erwinase (MTT) [6]: sensitizes lymphoma to growth inhibition by Erwinase
- tumour growth rate (MTT) [6]: no impact on the tumour growth rate
- TRAF2 levels during Erwinase treatment [7]: sensitizes RAJI cells to TRAF2 loss during nutrient stress

Molecule: shTRAF1: shRNA designed to knockdown expression of TRAF1, sequence CGTGTGTTTGAGAACATTG (Open Biosystems TRC library)
- sensitivity to Erwinase induced death (Annexin V/PI) [4]: increases the sensitivity of the Chronic lymphocytic leukemia cell line MEC2 to Erwinase induced death
- TRAF1 levels ([5]; RAJI stably expressing shRNA, versus control treated RAJI): substantially lower levels of TRAF1
- level of pS6K / pS6 [8]: levels of pS6 are lower
- sensitivity to Erwinase induced death (Annexin V/PI) [2]: Increases the Sensitivity of RAJI to Erwinase Induced Death
- cell growth / proliferation with Erwinase (MTT) [6]: sensitizes lymphoma to growth inhibition by Erwinase
- tumour growth rate (MTT) [6]: no impact on the tumour growth rate
- TRAF2 level under low glutamine ([7]; nutrient stress (low glutamine), versus WT): TRAF2 was lost
- constitutive Erk and NF-κB activation [3]: reduces constitutive Erk and NF-κB activation

B1: Erwinase: Licensed drug derived from the Asparaginase of Erwinia chrysanthemi; nutrient stress-inducing agent (protein, UniProt P06608 22-348, looked up)
L-asparaginase: ADKLPNIVILATGGTIAGSAATGTQTTGYKAGALGVDTLINAVPEVKKLANVKGEQFSNMASENMTGDVVLKLSQRVNELLARDDVDGVVITHGTDTVEESAYFLHLTVKSDKPVVFVAAMRPATAISADGPMNLLEAVRVAGDKQSRGRGVMVVLNDRIGSARYITKTNASTLDTFKANEEGYLGVIIGNRIYYQNRIDKLHTTRSVFDVRGLTSLPKVDILYGYQDDPEYLYDAAIQHGVKGIVYAGMGAGSVSVRGIAGMRKAMEKGVVVIRSTRTGNGIVPPDEELPGLVSDSLNPAHARILLMLALTRTSDPKVIQEYFHTY
- level of pS6K / pS6 [8]: reduced the level of pS6K
- cell growth / proliferation with Erwinase (MTT) [6]: arrest in cell growth
- impact of Erwinase alone in MTT assay ([6]; control RAJI, 1 IU/ml, 48 hr): minimal impact
- TRAF2 levels during Erwinase treatment [7]: significant reduction in TRAF2 levels only when TRAF1 was reduced by shRNA
- Erwinase sensitivity (% AnnexinV+ and/or PI+ cells) versus TRAF1 expression [9]: inverse correlation between TRAF1 levels and Erwinase sensitivity
